Assay results: paper PMC6331810, “Novel Coumarin-Containing Aminophosphonatesas Antitumor Agent: Synthesis, Cytotoxicity, DNA-Binding and Apoptosis Evaluation” (Molecules, 2015)

What was measured:
CT-DNA [1] = test: Spectrofluorimetric titration with CT-DNA (Stern-Volmer and binding constants); set-up: species or system calf; settings: from F0/F-1 vs [DNA]; Tris-HCl buffer pH 7.2
Experimental: The DNA binding properties of compounds 8a–8j were evaluated based on their affinity or interaction with CT-DNA, measured with fluorescence spectrometric titration.
The calibration curve for determination of DNA was constructed by adding different proportion of DNA to a 2.0 × 10^−3 M compound 8j solution (pH = 7.2 Tris-HCl buffer). […] [Q] is the concentration of quencher. KSV is the Stern-Volmer constant and KQ is the bimolecular quenching rate constant. τ0 is the lifetime of the fluorophore in the absence of quencher and for most biomolecules τ0 is about 10^−8 s. The Stern-Volmer constant, KSV, for compound 8j has been determined from the plot of F0/F-1 vs. [DNA] (see Figure 2) and found to be 5.11 × 10^2 M^−1.
When small molecules binding independently to a set of equivalent sites on a macromolecule, the equilibrium between free and bound molecules is given by the equation [28]: (2) lg (F0/F-1) = lgKb + nlg[Q] where Kb and n are the binding constant and the number of binding sites, respectively, which could be got from the curve of lg(F0/F-1) vs. lg[Q]. The plot of lg(F0/F-1) vs. lg[DNA] has been shown in Figure 3 for compound 8j and indicates a simple binding process for the compound.
All fluorescence experiments were carried out on a Perkin-Elmer LS50B luminescence spectrometer. Fluorescence spectra were measured at rt using quartz cells of 1cm path. To the solutions of the drugs (2.0 × 10^−3 M) in 2.5 mL Tris-HCl buffer (pH = 7.2) were added aliquots of CT-DNA (2.0 × 10^−3 M) solution containing drugs (2.0 × 10^−3 M) in 2.5 mL Tris-HCl buffer (pH = 7.2). This operation ensured that the concentration of CT-DNA increased gradually from 0 to 360 µM, while the concentrations of drugs were kept constant. The mixing was achieved by stirring for 10min. Then, the corresponding fluorescence spectra were measured (ex 325 nm, ex/em 1.5 nm/1.5 nm). Binding constants were derived from the modified.

[2] = tested on: HCT-116 (Human colorectal cells); test: MTT cytotoxicity assay, HCT-116; format: cell-based; settings: MTT, 48 h, no irradiation, mean ± SD of three experiments
Experimental: (§1) Cell Lines. The following in vitro human cancer cell lines were used: HCT-116 (Human colorectal cells), human KB (human nasopharyngeal carcinoma cells), MGC-803 (human lung adenocarcinoma cell line), HUVEC (Human Umbilical Vein Endothelial Cells). The cell lines (HCT-116, KB, MGC-803 and HUVEC) were purchased from the Cell Resource Center of Shanghai Institutes for Biological Sciences, the Academy of Sciences of China.
(§2) Cell Culture. HCT-116, human KB, MGC-803 and HUVEC cells were cultured in Dulbecco Modified Eagle Medium (DMEM; HyClone, Los Angeles, CA, USA), containing 4.0 mM L-Glutamine and 4500 mg/L Glucose, supplemented with 10% (v/v) foetalbovine serum (FBS; HyClone). The cell culturemedia was supplemented with penicillin/streptomycin at 100 Units/mL as adherent monolayers. Cell cultures were kept in a humidified incubator with 5% CO2 at 37 °C. Stock solutions were prepared in dimethyl sulfoxide (DMSO) and further dilutions were made with fresh culture medium. The concentration of DMSO in the final culture medium was 1%, which had no effect on the cell viability.
(§3) MTT Assay. Chemosensitivity was assessed using 3-(4,5-dimethylthiazol-2-yl)-2,5-diphenyl tetrazolium bromide (MTT) assay. Briefly, exponentially growing HCT-116 (3000–4000 cells/well), human KB (2000–3000 cells/well) and MGC 803 (2000–3000 cells/well) were seeded into 96-well plates and treated with indicated concentrations of samples for 48 h, and then […] of MTT (10 mg/mL) was added. After incubation for 4 h at 37 °C, the purple formazan crystals (i.e., a reduced form of MTT) generated from viable cells were dissolved by adding 100 μL DMSO in each well. The plates were swirled gently for 10 min to dissolve the precipitate, and quantified by measuring the optical density (OD) of the plates at a wavelength of 490 nm on plate reader (TECAN infinite M1000). Each concentration was repeated in three wells and the same experimental conditions were provided for all compounds and MTT analysis was repeated three times for each cell line.

[3] = tested on: HUVEC (Human Umbilical Vein Endothelial Cells); test: MTT cytotoxicity assay, HUVEC normal cells; format: cell-based; settings: no irradiation, mean ± SD of three experiments
Experimental: as §1, §2, §3

[4] = tested on: human KB (human nasopharyngeal carcinoma cells); test: MTT cytotoxicity assay, human KB; format: cell-based; settings: 48 h, no irradiation, mean ± SD of three experiments
Experimental: as §1, §2, §3

[5] = tested on: MGC-803 (human lung adenocarcinoma cell line); test: MTT cytotoxicity assay, MGC-803; format: cell-based; settings: 48 h, no irradiation, mean ± SD of three experiments
Experimental: as §1, §2, §3

HCT-116 cells = test: Apoptosis and cell cycle analysis by flow cytometry (PI staining); format: cell-based, human; settings: HCT-116, 48 h at IC50 concentration; untreated cells 35.32%
Experimental: Compared to the control (untreated cells), changes in the cell cycle distribution of treated HCT-116 cells were evident.
Figure 6 Inhibition of cell cycle progress in HCT-116 cells treated with compounds 8d, 8f, 8c and 8j for 48 h. Cells were fixed with ethanol and stained with PI. Cell cycle distribution was analyzed by flow cytometry. First peak represents sub-G1 peak, which was taken as the fraction of the apoptotic cell population. TEXT PRINTED IN THE PICTURE: 8d: Diploid: 100.00%; Dip G1: 87.24 % at 74.84; Dip G2: 7.42 % at 147.44; Dip S: 5.34 % | 8f: Diploid: 100.00%; Dip G1: 74.25 % at 73.13; Dip G2: 10.86 % at 144.07; Dip S: 14.89 % | 8c: Diploid: 100.00%; Dip G1: 82.72 % at 72.85; Dip G2: 6.28 % at 143.51; Dip S: 11.00% | 8j: Diploid: 100.00%; Dip G1: 15.12 % at 45.10; Dip G2: 52.47 % at 88.84; Dip S: 32.40%; Apoptosis: 4.01 % Mean: 33.84 | Control (−): Diploid: 100.00%; Dip G1: 35.32 % at 52.60; Dip G2: 19.20 % at 103.62; Dip S: 45.84% DOUBTS OF THE COPYIST ABOUT THIS PICTURE: Print is small throughout, so 3, 5, 6, 8 and 9 cannot be told apart with certainty in the values below; best readings are given. / 8d, Dip G1: 87.24 % at 74.84, the 8s uncertain / 8d, Dip S: 5.34, the 5 and 3 uncertain / 8f, Dip G2: 10.86 % at 144.07, the 8 and 6 uncertain / 8f, Dip S: 14.89, the 8 and 9 uncertain / 8c, Dip G1: 82.72 % at 72.85, the 8s and 5 uncertain / 8c, Dip G2: 6.28 % at 143.51, the 6, 8, 3 and 5 uncertain / 8j, Dip G2: 52.47 % at 88.84, the 5 and 8s uncertain / 8j, Apoptosis: 4.01 % Mean: 33.84, the 3s and 8 uncertain / Control (−), Dip G1: 35.32 % at 52.60, the 3s, 5s and 6 uncertain / Control (−), Dip G2: 19.20 % at 103.62, the 9, 3 and 6 uncertain / Control (−), Dip S: 45.84, the 5 and 8 uncertain / Control (−) is an untreated control, not a compound; it is included because results are printed with it. / G2/G1: 1.97 and %CV, printed in every plot, are left out as fit parameter and statistic.
Apoptosis was quantified by assessing the fraction of cells with sub-G1 DNA content by flow cytometry. The cells lines were treated with indicated concentrations of compounds […]. After incubated for 48 h, cells were washed twice with ice-cold PBS, fixed and permeabilized with ice-cold 70% ethanol at −20 °C overnight. The cells were treated with 100 μg/mL RNase A at 37 °C for 30 min after washed with ice-cold PBS, and finally stained with 1 mg/mL propidium iodide (PI) in the dark at 4 °C for 30 min. Analysis was performed with the system software (Cell Quest; BD Biosciences, Franklin Lakes, NJ, USA).

CT-DNA [6] = test: Circular dichroism spectra of CT-DNA; format: binding, calf; settings: [compound]/[DNA] 1:10; 1.5 × 10^−4 M DNA, 1.5 × 10^−5 M compound
Experimental: CD absorption spectra of DNA were measured in TBS at a 100 nm/min scan rate in the wavelength range from 200 to 500 nm, with 1.5 × 10^−4 M DNA in the absence and presence of each compound of 1.5 × 10^−5 M, respectively. The CD signal of TBS was taken as the background and subtracted from the spectra. All the spectroscopic experiments were performed at 25 °C.

GelRed/CT-DNA = test: GelRed-DNA competitive binding (fluorescence quenching); set-up: species or system calf; settings: I0/I vs [Q]; [GelRed]/[DNA] = 1:10, ex 350 nm, em 590 nm
[7] = Homo sapiens, HCT-116, light or radiation study
[8] = Homo sapiens, HUVEC, light or radiation study
[9] = Homo sapiens, light or radiation study
[10] = Homo sapiens, MGC-803, light or radiation study

Row | SMILES | KSV (Stern-Volmer constant) (CT-DNA [1]) [M⁻¹] | IC50 [2, 7] [µM] | IC50 [3, 8] [µM] | IC50 [4, 9] [µM] | IC50 [5, 10] [µM] | IC50 [2] [µM] | IC50 [3] [µM] | IC50 [4] [µM] | IC50 [5] [µM] | G1-phase population (HCT-116 cells) [%] | Negative AI decrease (CD absorption peak of CT-DNA at 247 nm) (CT-DNA [6]) [%] | Positive AI decrease (CD absorption peak of CT-DNA at 281 nm) (CT-DNA [6]) [%] | Kq (quenching constant of GelRed bound to DNA) (GelRed/CT-DNA) [M⁻¹]
1 | Cc1cc(=O)oc2cc(O)ccc12 [Compound 2, 7-Hydroxy-4-methyl-2H-chromen-2-one, reference compound] | 442 | > 100 | > 100 | > 50 | > 100 | – | – | – | – | – | – | – | –
2 | O=c1[nH]cc(F)c(=O)[nH]1 [Compound 5-Fu, 5-fluoro-2,4(1H,3H)pyrimidinedione, reference compound] | – | 10.1 ± 2.2 | 56 ± 3.21 | 1.23 ± 1.09 | 15.3 ± 1.96 | – | – | – | – | – | – | – | –
3 | CCOP(=O)(OCC)C(NC(=O)CCOc1ccc2c(C)cc(=O)oc2c1)c1ccccc1 (stereo not shown) [Compound 8a, Diethyl(3-(4-methyl-2-oxo-2H-chromen-7-yloxy)propanamido)(phenyl)methylphosphonate] | 340 | – | – | – | – | > 100 | > 100 | > 50 | > 100 | – | – | – | –
4 | CCOP(=O)(OCC)C(NC(=O)CCOc1ccc2c(C)cc(=O)oc2c1)c1ccccc1F (stereo not shown) [Compound 8b, Diethyl(3-(4-methyl-2-oxo-2H-chromen-7-yloxy)propanamido)(2-fluorophenyl)methylphospho-nate] | 299 | – | – | – | – | > 100 | > 100 | > 50 | > 100 | – | – | – | –
5 | CCOP(=O)(OCC)C(NC(=O)CCOc1ccc2c(C)cc(=O)oc2c1)c1ccccc1Cl (stereo not shown) [Compound 8c, Diethyl(3-(4-methyl-2-oxo-2H-chromen-7-yloxy)propanamido)(2-chlorophenyl)methylphospho-nate] | 481 | – | – | – | – | 88.7 ± 1.69 | > 100 | 33.4 ± 1.2 | 79.4 ± 3.82 | 82.72 | – | – | –
6 | CCOP(=O)(OCC)C(NC(=O)CCOc1ccc2c(C)cc(=O)oc2c1)c1ccc(Cl)cc1 (stereo not shown) [Compound 8d, Diethyl(3-(4-methyl-2-oxo-2H-chromen-7-yloxy)propanamido)(4-chlorophenyl)methylphospho-nate] | 429 | – | – | – | – | 86.2 ± 1.86 | > 100 | 7.8 ± 5.36 | 76.9 ± 3.89 | 87.24 | – | – | –
7 | CCOP(=O)(OCC)C(NC(=O)CCOc1ccc2c(C)cc(=O)oc2c1)c1ccccc1Br (stereo not shown) [Compound 8e, Diethyl(3-(4-methyl-2-oxo-2H-chromen-7-yloxy)propanamido)(2-bromophenyl)methylphospho-nate] | 475 | – | – | – | – | 90.5 ± 1.09 | > 100 | 9.55 ± 0.09 | 67.5 ± 3.26 | – | – | – | –
8 | CCOP(=O)(OCC)C(NC(=O)CCOc1ccc2c(C)cc(=O)oc2c1)c1ccc(Br)cc1 (stereo not shown) [Compound 8g, Diethyl(3-(4-methyl-2-oxo-2H-chromen-7-yloxy)propanamido)(4-bromophenyl)methylphosph-onate] | 410 | – | – | – | – | 88.5 ± 4.62 | > 100 | 7.27 ± 6.18 | 85.6 ± 2.83 | – | – | – | –
9 | CCOP(=O)(OCC)C(NC(=O)CCOc1ccc2c(C)cc(=O)oc2c1)c1ccccc1OC (stereo not shown) [Compound 8h, Diethyl(3-(4-methyl-2-oxo-2H-chromen-7-yloxy)propanamido)(2-methoxyphenyl)methylphos-phonate] | 357 | – | – | – | – | 23.7 ± 5.89 | > 100 | – | 36.9 ± 1.96 | – | 28.5 | 34.5 | 2410
10 | CCOP(=O)(OCC)C(NC(=O)CCOc1ccc2c(C)cc(=O)oc2c1)c1ccc2ccccc2c1 (stereo not shown) [Compound 8i, Diethyl(3-(4-methyl-2-oxo-2H-chromen-7-yloxy)propanamido)(naphthalen-2-yl)methylphosph-onate] | 18100 | – | – | – | – | 38.9 ± 0.04 | > 100 | – | 41.5 ± 2.86 | – | – | – | –
